# Like-named read-outs stand apart in the source and are kept apart here.
# Columns and labels:
# [1] = system: Mycosphaerella graminicola; Anamorph: Septoria tritici; Bayer Code SEPTTR; assay: Leaf blotch of wheat, foliar fungicide treatment, one day protectant (1DP) or three day curative (3DC); type: in vivo, Septoria tritici on wheat plants (variety Yuma); conditions: Zymoseptoria tritici, rating of percent disease control
# [2] = system: Cercospora beticola; Bayer Code CERCBE; assay: Leaf spot of sugar beets; type: in vivo, Cercospora beticola on sugar beets (variety HH-88); conditions: 24 h, % disease control rating, one day protectant; for pest or weed control at 25 ppm: read-out: CERCBE 1 DP 25 ppm; for pest or weed control at 75 ppm: read-out: CERCBE 1 DP 75 ppm
# [3] = system: Venturia inaequalis; Bayer Code VENTIN; assay: Apple scab; type: in vivo; conditions: 24 h, % disease control rating, one day protectant; for pest or weed control at 25 ppm: read-out: VENTIN 1 DP 25 ppm; for pest or weed control at 75 ppm: read-out: VENTIN 1 DP 75 ppm
# [4] = 24 h, one day protectant (1DP), read-out: SETTTR 1DP 25 ppm
# [5] = 24 h, one day protectant (1DP), read-out: SEPTTR 1DP 100 ppm
# [6] = 72 h, three day curative (3DC), read-out: SEPTTR 3DC 25 ppm
# [7] = 72 h, three day curative (3DC), read-out: SEPTTR 3DC 100 ppm
SMILES,"pest or weed control at 25 ppm [1, 4]","pest or weed control at 100 ppm [1, 5]","pest or weed control at 25 ppm [1, 6]","pest or weed control at 100 ppm [1, 7]",pest or weed control at 25 ppm [2],pest or weed control at 75 ppm [2],pest or weed control at 25 ppm [3],pest or weed control at 75 ppm [3]
Cc1oc(-c2ccccc2)cc1COc1ncc(F)c(N)n1 [Compound 251],76 to 100%,76 to 100%,76 to 100%,76 to 100%,0 to 25%,51 to 75%,76 to 100%,76 to 100%
CN(C)/C=N/c1nc(OC(=O)c2ccc(Cl)cc2Cl)ncc1F [Compound 260],76 to 100%,76 to 100%,76 to 100%,76 to 100%,76 to 100%,51 to 75%,76 to 100%,76 to 100%
Nc1nc(OCCN2CCCC2=O)ncc1F [Compound 270],0 to 25%,0 to 25%,0 to 25%,0 to 25%,26 to 50%,26 to 50%,0 to 25%,26 to 50%
Nc1nc(OCc2ccc(F)cc2C(F)(F)F)ncc1F [Compound 271],76 to 100%,76 to 100%,51 to 75%,76 to 100%,26 to 50%,26 to 50%,26 to 50%,51 to 75%
COc1cc(COc2ncc(F)c(N)n2)cc(Cl)n1 [Compound 311],76 to 100%,76 to 100%,76 to 100%,76 to 100%,26 to 50%,26 to 50%,26 to 50%,26 to 50%
Nc1nc(OCc2ccc(-c3ccccn3)s2)ncc1F [Compound 316],76 to 100%,76 to 100%,76 to 100%,76 to 100%,51 to 75%,76 to 100%,76 to 100%,76 to 100%
CC(Oc1ncc(F)c(N)n1)c1cccc2ccccc12 (stereo not shown) [Compound 335],76 to 100%,76 to 100%,76 to 100%,76 to 100%,26 to 50%,76 to 100%,76 to 100%,76 to 100%
CS(=O)(=O)Oc1ncc(F)c(N)n1 [Compound 337],26 to 50%,76 to 100%,26 to 50%,26 to 50%,51 to 75%,76 to 100%,51 to 75%,76 to 100%
COc1c(F)cccc1COc1ncc(F)c(N)n1 [Compound 341],76 to 100%,76 to 100%,76 to 100%,76 to 100%,0 to 25%,0 to 25%,26 to 50%,0 to 25%
Nc1nc(OCc2ccccc2N2CCOCC2)ncc1F [Compound 342],76 to 100%,76 to 100%,76 to 100%,76 to 100%,26 to 50%,76 to 100%,76 to 100%,76 to 100%
CCOCNc1nc(OCc2cccs2)ncc1F [Compound 343],26 to 50%,76 to 100%,76 to 100%,76 to 100%,76 to 100%,76 to 100%,76 to 100%,51 to 75%
CCNN(CC)c1nc(OCc2ccc(F)cc2)ncc1F [Compound 352],0 to 25%,0 to 25%,0 to 25%,0 to 25%,0 to 25%,0 to 25%,0 to 25%,26 to 50%
NN(c1nc(OCc2ccc(F)cc2)ncc1F)C1CCCCC1 [Compound 353],0 to 25%,0 to 25%,0 to 25%,0 to 25%,26 to 50%,26 to 50%,26 to 50%,76 to 100%
CC(Oc1ncc(F)c(N)n1)c1ccc(C(F)(F)F)nc1 (stereo not shown) [Compound 356],26 to 50%,51 to 75%,26 to 50%,51 to 75%,51 to 75%,0 to 25%,51 to 75%,26 to 50%
Nc1nc(OCC2CCCC2)ncc1F [Compound 370],0 to 25%,0 to 25%,0 to 25%,0 to 25%,26 to 50%,26 to 50%,26 to 50%,26 to 50%
Fc1cnc(OCc2ccccc2)nc1NNc1ccccn1 [Compound 373],0 to 25%,0 to 25%,26 to 50%,51 to 75%,0 to 25%,0 to 25%,0 to 25%,26 to 50%
CN1CCCC1CCOc1ncc(F)c(N)n1 (stereo not shown) [Compound 384],51 to 75%,76 to 100%,26 to 50%,76 to 100%,0 to 25%,0 to 25%,51 to 75%,0 to 25%
O=C(OCNc1nc(OCc2ccc(F)cc2)ncc1F)C1CC1 [Compound 410],51 to 75%,76 to 100%,51 to 75%,76 to 100%,26 to 50%,26 to 50%,26 to 50%,51 to 75%
O=C(Nc1nc(OCc2ccc(F)cc2)ncc1F)c1cccc2nnsc12 [Compound 411],76 to 100%,76 to 100%,26 to 50%,26 to 50%,26 to 50%,26 to 50%,51 to 75%,51 to 75%
CN(C)/C=N/c1nc(OCc2cccc(C#N)c2)ncc1F [Compound 418],76 to 100%,76 to 100%,76 to 100%,76 to 100%,0 to 25%,0 to 25%,51 to 75%,51 to 75%
Cc1nc(COc2ncc(F)c(N)n2)cs1 [Compound 436],76 to 100%,76 to 100%,76 to 100%,76 to 100%,51 to 75%,26 to 50%,76 to 100%,76 to 100%
CCOCNc1nc(OCc2ccc(OC)c(F)c2)ncc1F [Compound 452],76 to 100%,76 to 100%,76 to 100%,76 to 100%,0 to 25%,0 to 25%,0 to 25%,26 to 50%
CC(C)(C)OC(=O)NOc1ncc(F)c(N)n1 [Compound 481],76 to 100%,76 to 100%,76 to 100%,76 to 100%,26 to 50%,76 to 100%,76 to 100%,76 to 100%
CC(Oc1ncc(F)c(/N=C/N(C)C)n1)c1ccc(F)cc1 (stereo not shown) [Compound 483],76 to 100%,76 to 100%,76 to 100%,76 to 100%,0 to 25%,0 to 25%,26 to 50%,76 to 100%
COc1ncc(Oc2ncc(F)c(N)n2)cn1 [Compound 488],0 to 25%,0 to 25%,0 to 25%,0 to 25%,0 to 25%,0 to 25%,26 to 50%,26 to 50%
COc1ccccc1CCOc1ncc(F)c(N)n1 [Compound 524],0 to 25%,51 to 75%,0 to 25%,51 to 75%,0 to 25%,0 to 25%,51 to 75%,51 to 75%
